The values below come from ChEMBL document CHEMBL4007451, “The 2014 Philip S. Portoghese Medicinal Chemistry Lectureship: The "Phenylalkylaminome" with a Focus on Selected Drugs of Abuse” (J Med Chem, 2017).

Bounds are passed on as bounds.

Test [1] has as its target 5-hydroxytryptamine receptor 2A (Rattus norvegicus, UniProt P14842). Kind of test: Displacement of [3H]DOB from 5HT2A in Sprague-Dawley rat cortex membranes measured after 15 mins by scintillation counting method. It counts as cell membranes. Background: Displacement assays read how much labelled ligand stays bound in the presence of the test substance.
The target in test [2] is 5-hydroxytryptamine receptor 2A (Homo sapiens, UniProt P28223). Kind of test: Displacement of [125I]DOI from recombinant human 5HT2A expressed in Syrian hamster AV12 cell membranes.
A short description of test [3]: Activity at NET in rat synaptosomes assessed as release of [3H]NE after 30 mins by liquid scintillation counting method. It counts as subcellular.
Test [4] is filed under the species Rattus norvegicus. Kind of test: Induction of stimulus generalization in rat trained to discriminate S(+)methamphetamine assessed as appropriate responding level to training drug by two lever method. It counts as functional.
A short description of test [5]: Displacement of [3H]DTG from sigma receptor (unknown origin). Set-up: species or system Homo sapiens.
For test [6], the species on record is Rattus norvegicus. Description: Induction of stimulus generalization in Sprague-Dawley rat trained to discriminate AMPH assessed as appropriate responding level to training drug by two lever method. It counts as functional.
The species named for test [7] is Rattus norvegicus. Description: Induction of stimulus generalization in Sprague-Dawley rat trained to discriminate MDMA assessed as appropriate responding level to training drug by two lever method. It counts as functional. The note with it: for ED50: Rattus norvegicus, Sprague-Dawley.
The species entered for test [8] is Rattus norvegicus. Description: Induction of stimulus generalization in Sprague-Dawley rat trained to discriminate alpha-ET assessed as appropriate responding level to training drug by two lever method. Format: functional. The note with it: for ED50: Rattus norvegicus, Sprague-Dawley.
For test [9], the species on record is Rattus norvegicus. Kind of test: Induction of stimulus generalization in Sprague-Dawley rat trained to discriminate S(+)AMPH assessed as appropriate responding level to training drug by two lever method. It counts as functional.
The species named for test [10] is Rattus norvegicus. Description: Induction of stimulus generalization in Sprague-Dawley rat trained to discriminate S(-)MCAT assessed as appropriate responding level to training drug by two lever method. Format: functional.
For test [11], the species on record is Rattus norvegicus. Description: Induction of stimulus generalization in Sprague-Dawley rat trained to discriminate rac-cathinone assessed as appropriate responding level to training drug by two lever method. Format: functional.
Test [12] is filed under the species Rattus norvegicus. Description: Induction of stimulus generalization in rat trained to discriminate (+)amphetamine assessed as appropriate responding level to training drug by two lever method. Format: functional.
Test [13] deals with Sodium-dependent serotonin transporter (Homo sapiens, UniProt P31645). Kind of test: Activity at SERT (unknown origin) assessed as release of [3H]HT.
Test [14] concerns the target Sodium-dependent dopamine transporter (Homo sapiens, UniProt Q01959). Kind of test: Activity at DAT (unknown origin) assessed as release of [3H]DA.
The species entered for test [15] is Homo sapiens. Kind of test: Selectivity ratio of EC50 for SERT (unknown origin) assessed as release of [3H]HT to EC50 for DAT (unknown origin) by [3H]DA release assay.
Test [16] deals with Sigma non-opioid intracellular receptor 1 (Cavia porcellus, UniProt Q60492). Kind of test: Displacement of (+)-[3H]pentazocine from guinea pig brain membrane sigma1 receptor by scintillation spectrometric method.
Test [17] can be described thus: Displacement of [3H]ketanserin from rat brain 5HT2 receptor.
The species named for test [18] is Rattus norvegicus. Description: Induction of stimulus generalization in rat trained to discriminate DOM assessed as appropriate responding level to training drug by two lever method. It counts as functional.
Test [19] deals with Sodium-dependent serotonin transporter (Rattus norvegicus, UniProt P31652). Description: Activity at SERT in rat synaptosomes assessed as release of [3H]HT after 5 mins by liquid scintillation counting method. It counts as subcellular.
Test [20] addresses Sodium-dependent dopamine transporter (Rattus norvegicus, UniProt P23977). Description: Activity at DAT in rat synaptosomes assessed as release of [3H]DA after 5 mins by liquid scintillation counting method. It counts as subcellular.
Test [21] deals with T1, 5-hydroxytryptamine receptor 1A (Rattus norvegicus, UniProt P19327).
T1 sequence (P19327 whole entry): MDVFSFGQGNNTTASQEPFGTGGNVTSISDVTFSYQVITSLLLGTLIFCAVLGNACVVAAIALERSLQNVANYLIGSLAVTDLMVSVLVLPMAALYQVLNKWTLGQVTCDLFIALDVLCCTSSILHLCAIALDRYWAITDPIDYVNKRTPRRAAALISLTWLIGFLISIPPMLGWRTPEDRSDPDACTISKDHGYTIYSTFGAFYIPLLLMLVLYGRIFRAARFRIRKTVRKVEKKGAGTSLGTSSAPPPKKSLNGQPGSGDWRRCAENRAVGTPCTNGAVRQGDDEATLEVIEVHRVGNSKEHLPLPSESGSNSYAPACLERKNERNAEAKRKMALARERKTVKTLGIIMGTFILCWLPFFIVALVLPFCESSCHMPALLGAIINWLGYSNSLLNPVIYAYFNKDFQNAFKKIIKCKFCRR
Description: Displacement of [3H]-8-OH-DPAT from 5-HT1A receptor in Sprague-Dawley rat cortex membranes after 15 mins by liquid scintillation spectrometric method. Format: cell membranes.

Test [22] is filed under the species Rattus norvegicus. Description: Induction of stimulus generalization in Sprague-Dawley rat trained to discriminate DOM assessed as appropriate responding level to training drug by two lever method. The following applies: Rattus norvegicus, Sprague-Dawley. It counts as functional.
For test [23], the species on record is Rattus norvegicus. Kind of test: Induction of stimulus generalization in Sprague-Dawley rat trained to discriminate PMMA assessed as appropriate responding level to training drug by two lever method. It counts as functional.
For test [24], the species on record is Rattus norvegicus. Kind of test: Induction of stimulus generalization in rat trained to discriminate MDMA assessed as appropriate responding level to training drug by two lever method. It counts as functional. The following applies: for ED50: Rattus norvegicus.
Test [25] is filed under the species Rattus norvegicus. Description: Induction of stimulus generalization in rat trained to discriminate PMMA assessed as appropriate responding level to training drug by two lever method. Format: functional. The following applies: for ED50: Rattus norvegicus.
The test system of test [26] is Mus musculus. Description: Anxiolytic-like activity in iv dosed ICR mouse assessed as increase in marbles left uncovered measured after 30 mins by marble burying assay. It counts as functional. The note with it: 0.5 h.

Sodium-dependent serotonin transporter (Homo sapiens, UniProt P31645), sequence (P31645 whole entry): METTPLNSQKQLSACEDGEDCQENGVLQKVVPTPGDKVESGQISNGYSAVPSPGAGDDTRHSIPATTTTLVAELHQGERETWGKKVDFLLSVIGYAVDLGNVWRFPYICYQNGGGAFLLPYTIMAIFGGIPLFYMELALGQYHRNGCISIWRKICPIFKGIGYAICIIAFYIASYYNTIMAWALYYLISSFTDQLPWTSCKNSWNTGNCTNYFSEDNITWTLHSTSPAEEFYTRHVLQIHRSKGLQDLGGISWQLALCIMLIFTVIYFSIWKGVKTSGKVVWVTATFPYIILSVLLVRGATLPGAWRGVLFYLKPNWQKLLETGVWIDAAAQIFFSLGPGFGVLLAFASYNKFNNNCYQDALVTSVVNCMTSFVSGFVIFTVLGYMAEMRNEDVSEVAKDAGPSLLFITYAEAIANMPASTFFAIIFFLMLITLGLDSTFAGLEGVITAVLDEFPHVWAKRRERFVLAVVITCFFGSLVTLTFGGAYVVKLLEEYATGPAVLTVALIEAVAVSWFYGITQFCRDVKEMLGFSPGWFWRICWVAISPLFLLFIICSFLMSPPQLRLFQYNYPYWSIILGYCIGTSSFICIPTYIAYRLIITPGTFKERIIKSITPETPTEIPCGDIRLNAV
5-hydroxytryptamine receptor 2A (Rattus norvegicus, UniProt P14842), sequence (P14842 whole entry): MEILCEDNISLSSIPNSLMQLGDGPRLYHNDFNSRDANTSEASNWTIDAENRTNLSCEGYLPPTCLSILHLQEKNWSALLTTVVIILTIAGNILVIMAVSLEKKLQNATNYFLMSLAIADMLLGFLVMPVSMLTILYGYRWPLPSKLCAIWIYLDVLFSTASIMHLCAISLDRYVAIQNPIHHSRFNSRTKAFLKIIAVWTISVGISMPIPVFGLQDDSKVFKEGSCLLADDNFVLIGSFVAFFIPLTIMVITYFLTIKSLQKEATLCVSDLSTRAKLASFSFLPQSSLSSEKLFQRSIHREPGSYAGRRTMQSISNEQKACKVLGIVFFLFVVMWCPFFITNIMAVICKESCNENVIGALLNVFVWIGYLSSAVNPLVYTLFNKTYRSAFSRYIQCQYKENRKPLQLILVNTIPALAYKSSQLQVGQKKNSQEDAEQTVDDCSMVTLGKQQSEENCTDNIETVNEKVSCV
Sodium-dependent dopamine transporter (Homo sapiens, UniProt Q01959), sequence (Q01959 whole entry): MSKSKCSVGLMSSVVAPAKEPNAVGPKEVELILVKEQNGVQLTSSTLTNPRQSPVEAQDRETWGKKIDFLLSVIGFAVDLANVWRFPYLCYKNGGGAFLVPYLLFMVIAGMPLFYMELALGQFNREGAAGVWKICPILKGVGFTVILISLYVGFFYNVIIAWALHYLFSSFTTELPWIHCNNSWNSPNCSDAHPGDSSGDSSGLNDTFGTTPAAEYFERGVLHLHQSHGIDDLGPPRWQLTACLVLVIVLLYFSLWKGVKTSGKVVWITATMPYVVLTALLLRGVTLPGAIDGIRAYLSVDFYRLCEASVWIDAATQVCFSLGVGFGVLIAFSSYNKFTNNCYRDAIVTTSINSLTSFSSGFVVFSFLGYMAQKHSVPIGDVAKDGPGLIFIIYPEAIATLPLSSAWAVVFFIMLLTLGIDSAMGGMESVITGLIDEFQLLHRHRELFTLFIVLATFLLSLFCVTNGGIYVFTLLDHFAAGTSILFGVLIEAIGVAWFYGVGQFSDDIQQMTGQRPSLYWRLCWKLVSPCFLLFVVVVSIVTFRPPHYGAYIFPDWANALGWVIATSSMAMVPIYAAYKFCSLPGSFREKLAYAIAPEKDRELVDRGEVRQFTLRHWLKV
Sigma non-opioid intracellular receptor 1, sequence (Q60492 whole entry): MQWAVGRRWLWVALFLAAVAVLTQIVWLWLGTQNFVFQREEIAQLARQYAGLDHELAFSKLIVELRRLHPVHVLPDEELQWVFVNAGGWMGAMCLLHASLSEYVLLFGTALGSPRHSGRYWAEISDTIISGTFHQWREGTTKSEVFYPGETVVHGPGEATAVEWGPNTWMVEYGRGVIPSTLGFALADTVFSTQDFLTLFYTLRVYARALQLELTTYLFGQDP
Sodium-dependent dopamine transporter (Rattus norvegicus, UniProt P23977), sequence (P23977 whole entry): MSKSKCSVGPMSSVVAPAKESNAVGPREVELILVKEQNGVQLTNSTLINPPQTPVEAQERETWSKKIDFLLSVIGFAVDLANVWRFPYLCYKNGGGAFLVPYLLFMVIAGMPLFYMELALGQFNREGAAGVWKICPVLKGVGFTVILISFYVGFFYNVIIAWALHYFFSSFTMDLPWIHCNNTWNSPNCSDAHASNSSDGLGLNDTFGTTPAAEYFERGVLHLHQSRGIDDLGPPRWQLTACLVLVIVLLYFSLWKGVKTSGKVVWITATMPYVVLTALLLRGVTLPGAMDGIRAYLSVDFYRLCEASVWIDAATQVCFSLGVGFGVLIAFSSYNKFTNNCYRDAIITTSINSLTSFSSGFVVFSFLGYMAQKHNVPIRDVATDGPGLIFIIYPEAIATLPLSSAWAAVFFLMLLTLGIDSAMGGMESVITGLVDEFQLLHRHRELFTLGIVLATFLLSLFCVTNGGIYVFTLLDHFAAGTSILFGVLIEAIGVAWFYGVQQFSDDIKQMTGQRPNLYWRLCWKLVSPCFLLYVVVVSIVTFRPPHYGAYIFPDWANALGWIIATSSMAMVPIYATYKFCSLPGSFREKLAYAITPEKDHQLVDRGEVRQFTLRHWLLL
Sodium-dependent serotonin transporter (Rattus norvegicus, UniProt P31652), sequence (P31652 whole entry): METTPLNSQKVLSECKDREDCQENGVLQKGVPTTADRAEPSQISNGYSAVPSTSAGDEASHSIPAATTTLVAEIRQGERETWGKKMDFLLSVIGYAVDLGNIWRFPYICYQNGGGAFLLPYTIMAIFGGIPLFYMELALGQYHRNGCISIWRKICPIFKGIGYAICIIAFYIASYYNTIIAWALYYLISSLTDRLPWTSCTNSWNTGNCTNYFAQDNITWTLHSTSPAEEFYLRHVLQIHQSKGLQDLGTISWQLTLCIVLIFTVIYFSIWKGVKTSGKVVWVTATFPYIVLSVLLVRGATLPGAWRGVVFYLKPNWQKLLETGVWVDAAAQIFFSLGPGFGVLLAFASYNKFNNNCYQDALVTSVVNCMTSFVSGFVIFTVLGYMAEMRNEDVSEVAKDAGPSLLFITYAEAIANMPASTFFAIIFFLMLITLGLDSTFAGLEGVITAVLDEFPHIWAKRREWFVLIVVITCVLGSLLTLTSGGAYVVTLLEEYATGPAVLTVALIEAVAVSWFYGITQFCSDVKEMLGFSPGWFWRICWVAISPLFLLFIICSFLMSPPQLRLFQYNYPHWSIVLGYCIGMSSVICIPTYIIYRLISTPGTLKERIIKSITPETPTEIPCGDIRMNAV
5-hydroxytryptamine receptor 2A (Homo sapiens, UniProt P28223), sequence (P28223 whole entry): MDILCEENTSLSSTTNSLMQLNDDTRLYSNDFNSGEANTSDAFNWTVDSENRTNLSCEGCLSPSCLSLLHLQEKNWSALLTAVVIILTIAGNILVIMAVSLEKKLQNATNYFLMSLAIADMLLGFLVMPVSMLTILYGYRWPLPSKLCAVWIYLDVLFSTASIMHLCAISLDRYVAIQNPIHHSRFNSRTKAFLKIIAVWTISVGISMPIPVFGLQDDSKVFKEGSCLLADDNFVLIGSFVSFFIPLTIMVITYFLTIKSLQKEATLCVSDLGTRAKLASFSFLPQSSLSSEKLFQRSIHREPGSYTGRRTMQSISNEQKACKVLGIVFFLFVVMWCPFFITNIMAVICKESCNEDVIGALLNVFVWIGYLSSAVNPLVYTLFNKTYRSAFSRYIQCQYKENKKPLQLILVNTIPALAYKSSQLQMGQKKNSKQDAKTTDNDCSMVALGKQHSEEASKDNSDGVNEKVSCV

Usually Ki stands for a dissociation constant, usually derived from enzyme kinetics or from competition with a known ligand. As for `COc1cc(OC)c(OC)cc1CC(C)N` (centres undefined), the inhibition constant (Ki) in [1] amounted to 81 nM; in [2], 57.9 nM.
Take `COc1ccc(OC)c(CC(C)N)c1` (centres undefined): the inhibitory constant (Ki) in test [1] was 268 nM.
In general, EC50 refers to the concentration that produces a half-maximal response. The term ED50 denotes the dose at which the effect has come halfway, by size or by number of responders. With `C[C@H](N)Cc1ccccc1` [DEXTROAMPHETAMINE], in test [3], the half-maximal effective concentration (EC50) was found to be 7 nM. Also, the ED50 in test [4] worked out at 0.28 mg/kg; in test [6] (Rattus norvegicus, Sprague-Dawley) it was 0.4 mg/kg; in test [9] it was 0.44 mg/kg; in test [10], 0.23 mg/kg; in test [11] it was 0.2 mg/kg; in [12], 0.62 mg/kg. The compound also displayed a Ki in [5] of 46000 nM. In addition, the Activity in [7] and in [8] was 20 - 80% throughout.
In the case of `CCNC(C)Cc1cccc(C(F)(F)F)c1` (centres undefined) [FENFLURAMINE], the concentration for a half-maximal effect (EC50) in test [3] was 740 nM.
Consider `CNC(C)C(=O)c1ccccc1` (centres undefined), for which the concentration giving a half-maximal response (EC50) in [13] turned out to be 3860 nM; in test [14] it was 12.5 nM. Besides, the Ratio EC50 in test [15] was over 200.
In test [16], `c1ccc(CCCCCN2CCCCC2Cc2ccccc2)cc1` (centres undefined) displayed an inhibitory constant (Ki) of 0.08 nM.
`C[C@H](N)Cc1c[nH]c2ccccc12` had an inhibition constant Ki in [17] of 2500 nM. Moreover, the 50% effective dose (ED50) in test [18] was 1.64 mg/kg.
With `CN[C@@H](C)C(=O)c1ccccc1`, the 50% effective concentration (EC50) in test [19] was 1770 nM; in [20], 14.8 nM; in test [3], 13.1 nM. Further, the ED50 in test [4] was determined as 0.21 mg/kg; in test [9], 0.18 mg/kg; in test [10], 0.11 mg/kg.
For `CCCCN(CCCC)[C@@H]1CCc2cccc(O)c2C1`, the affinity in [21], expressed as Ki, was 109 nM.
Regarding `CC[C@H](N)Cc1c[nH]c2ccccc12`, the figures for the EC50 in [19], in test [20] and in test [3] were 20 nM, 64 nM and over 10000 nM, respectively. Besides, the median effective dose (ED50) came to 2.7 mg/kg in [22], 2 mg/kg in test [7], 1.4 mg/kg in [23] and 1.3 mg/kg in [8]. The Activity in [6] worked out at 53%.
Turning to `CN[C@@H](C)Cc1ccccc1` [METHAMPHETAMINE], the ED50 in [4] came to 0.06 mg/kg; in [9], 0.2 mg/kg; in [10], 0.17 mg/kg.
In test [17], `C[C@@H](N)Cc1c[nH]c2ccccc12` registered an inhibition constant (Ki) of 5000 nM.
For the compound `c1ccc(CCCCCN2CCCCC2)cc1`, the Ki in test [16] was 0.38 nM.
Turning to `COc1cc(CC(C)N)c(OC)cc1C` (centres undefined) [DOM], the median effective dose (ED50) in test [22] turned out to be 0.4 mg/kg; in [8], 0.4 mg/kg; in test [18] it was 0.44 mg/kg.
As to `CNC(C)Cc1ccc(OC)cc1` (centres undefined), the ED50 in test [7] came to 0.2 mg/kg; in [23] it was 0.4 mg/kg; in [8], 0.7 mg/kg.
On to `COc1cccc(C[C@@H](C)N)c1`, for which, in test [24], the ED50 was 1.4 mg/kg. Further, the Activity in test [25] is 20 - 80%.
As for `CNC(C)C(=O)c1ccc(C(F)(F)F)cc1` (centres undefined), the EC50 in test [13] worked out at 190 nM; in test [14], 2700 nM. Also, in [15], the Ratio EC50 worked out at 14.
On to `C[C@H](N)C(=O)c1ccccc1` [CATHINONE], for which the 50% effective dose (ED50) in test [9] was 0.34 mg/kg; in [10], 0.17 mg/kg; in test [11], 0.22 mg/kg; in test [12] it was 0.32 mg/kg.
Consider `O=C1CC2(CCCC2)CC(=O)N1CCCCN1CCN(c2ncccn2)CC1` [BUSPIRONE], for which the 50% effective dose (ED50) in [26] came to 2.36 mg/kg.
As to `COc1ccc(C[C@H](C)N)cc1OC`, the ED50 in test [24] turned out to be 6.1 mg/kg; in test [25], 2.6 mg/kg.
As for `COc1cc(CC(C)N)c(OC)cc1I` (centres undefined), the affinity in test [1] corresponds to a Ki of 0.7 nM.
With `CNC(C)C(=O)c1ccc(C)cc1` (centres undefined) [MEPHEDRONE], the EC50 in test [13] came to 118 nM; in [14] it was 49.1 nM. Further, the Ratio EC50 in test [15] was found to be 2.5.
For the compound `COc1ccc(C[C@@H](C)N)cc1OC`, the median effective dose (ED50) was found to be 5.4 mg/kg in test [24] and 3 mg/kg in test [25].
Regarding `CC(N)Cc1c[nH]c2ccccc12` (centres undefined), the affinity in [17], expressed as Ki, was 3100 nM. Besides, in [18], the ED50 stood at 3.1 mg/kg.
Take `COc1ccc(C[C@H](C)N)cc1`: the Activity in test [24] and in [25] was 20 - 80% in each case.
`CC(Cc1ccccc1)NCCCCCc1ccccc1` (centres undefined) had an inhibition constant Ki in test [5] of 6.3 nM.
